# Legend:
# Conditions in all cases: 72 h
# Calu-3 [1] = assay: cell viability relative to DMSO; higher = less toxic
# U2OS [2] = assay: as above
# Vero E6 [3] = assay: as above
# Caco-2 [4] = assay: as above
# HepG2 [5] = assay: as above
# Calu-3 [6] = assay: drug sensitivity score (DSS) for viability; higher = more toxic; extreme values may be limits of the assay
# U2OS [7] = assay: as above
# Vero E6 [8] = assay: as above
# Caco-2 [9] = assay: as above
# HepG2 [10] = assay: as above
# Calu-3 [11] = assay: relative viability EC50 (midpoint between 100% and the lowest measured viability); higher = less toxic
# U2OS [12] = assay: as above
# Vero E6 [13] = assay: as above
# Caco-2 [14] = assay: as above
# HepG2 [15] = assay: as above
SMILES,cell viability (Calu-3 [1]; 1 nM),cell viability (Calu-3 [1]; 10 nM),cell viability (Calu-3 [1]; 100 nM),cell viability (Calu-3 [1]; 1000 nM),cell viability (Calu-3 [1]; 10000 nM),cell viability (U2OS [2]; 1 nM),cell viability (U2OS [2]; 10 nM),cell viability (U2OS [2]; 100 nM),cell viability (U2OS [2]; 1000 nM),cell viability (U2OS [2]; 10000 nM),cell viability (Vero E6 [3]; 1 nM),cell viability (Vero E6 [3]; 10 nM),cell viability (Vero E6 [3]; 100 nM),cell viability (Vero E6 [3]; 1000 nM),cell viability (Vero E6 [3]; 10000 nM),cell viability (Caco-2 [4]; 1 nM),cell viability (Caco-2 [4]; 10 nM),cell viability (Caco-2 [4]; 100 nM),cell viability (Caco-2 [4]; 1000 nM),cell viability (Caco-2 [4]; 10000 nM),cell viability (HepG2 [5]; 1 nM),cell viability (HepG2 [5]; 10 nM),cell viability (HepG2 [5]; 100 nM),cell viability (HepG2 [5]; 1000 nM),cell viability (HepG2 [5]; 10000 nM),drug sensitivity score (Calu-3 [6]),drug sensitivity score (U2OS [7]),drug sensitivity score (Vero E6 [8]),drug sensitivity score (Caco-2 [9]),drug sensitivity score (HepG2 [10]),relative viability EC50 (Calu-3 [11]),relative viability EC50 (U2OS [12]),relative viability EC50 (Vero E6 [13]),relative viability EC50 (Caco-2 [14]),relative viability EC50 (HepG2 [15])
CC(C)[N+](C)(CCC(C(N)=O)(c1ccccc1)c1ccccc1)C(C)C [isopropamide-iodide],97.2%,90.1%,96.2%,94.1%,87.1%,104%,99.8%,103%,98.4%,100%,102%,104%,101%,99.4%,98.6%,102%,94.2%,98.1%,93.9%,101%,98.1%,108%,93.5%,100%,102%,0,0,0,0,0,> 10 µM,> 10 µM,> 10 µM,> 10 µM,> 10 µM
C[C@H](Nc1cc(NS(=O)(=O)N2CCC2)nc(SCc2cccc(F)c2F)n1)[C@@H](O)CO [SRT3190],104%,97.1%,99.9%,89.9%,98.5%,98.4%,95.2%,100%,93.2%,94.5%,102%,100%,95.2%,98.5%,96.4%,103%,91%,93.3%,96%,101%,97.6%,90.1%,91%,111%,96%,0,0,0,0,0,> 10 µM,> 10 µM,> 10 µM,> 10 µM,> 10 µM
c1ccc(CNc2nc(NCc3ccccc3)c3ccccc3n2)cc1 [DBeQ],105%,103%,91.2%,93.7%,9%,97.6%,102%,97.1%,90.5%,8.2%,99.8%,98.9%,95.5%,94.1%,19.8%,95.7%,112%,94.5%,100%,28.8%,104%,96.1%,100%,96.6%,8.4%,6,6.7,5.4,3.9,5.5,2.61 µM,2.31 µM,2.57 µM,3.17 µM,2.89 µM
CN[C@@H](C)C(=O)N[C@H](C(=O)N1CCC[C@H]1c1nc(C(=O)c2ccc(F)cc2)cs1)C1CCCCC1 [LCL-161],106%,102%,97.6%,86.4%,77.2%,104%,109%,99.7%,97.8%,94%,97.8%,102%,97.8%,107%,104%,99.9%,97.9%,91.9%,103%,95.2%,93.5%,104%,99.8%,83.4%,89.8%,2,0,0,0,1.8,> 10 µM,> 10 µM,> 10 µM,> 10 µM,> 10 µM
CO[C@H]1CC=C2CCN3CCC4=C(CC(=O)OC4)[C@]23C1 [NSC-9965],101%,102%,94.3%,101%,111%,101%,105%,98.2%,106%,108%,92.5%,95.8%,95%,91.6%,105%,100%,99.6%,101%,105%,108%,99.9%,95%,100%,100%,104%,0,0,0,0,0,> 10 µM,> 10 µM,> 10 µM,> 10 µM,> 10 µM
COC(=O)[C@H](c1ccccc1Cl)N1CCc2sccc2C1 [clopidogrel],89.9%,104%,96.9%,96.7%,101%,94.8%,99.3%,95.8%,102%,97.6%,105%,86.7%,104%,104%,108%,91.9%,91.8%,95.1%,95%,88.2%,97.7%,97.7%,98.4%,112%,101%,0,0,0,0,0,> 10 µM,> 10 µM,> 10 µM,> 10 µM,> 10 µM
O=C1OC(c2ccc(O)cc2)(c2ccc(O)cc2)c2ccccc21 [phenolphthalein],96.1%,94.8%,94.2%,102%,102%,99.1%,96.1%,99.7%,97%,105%,95.8%,93.2%,87.4%,95.3%,107%,86.3%,77.8%,99.7%,93.2%,102%,131%,76.1%,112%,105%,119%,0,0,0,0,0,> 10 µM,> 10 µM,> 10 µM,> 10 µM,> 10 µM
O=c1cc(N2CCOCC2)oc2c1ccc1ccccc12 [NU-7026],98.4%,107%,102%,97.6%,82.8%,98.9%,101%,96.2%,99.6%,95.7%,99%,103%,98.3%,101%,86.2%,94.3%,113%,91%,99.2%,82.7%,106%,93.4%,92.9%,90.8%,88%,0.7,0,0.1,0.5,0.4,> 10 µM,> 10 µM,> 10 µM,> 10 µM,> 10 µM
CCOC(=O)Nc1ccc(NCc2c(C)cc(C)cc2C)cc1N,110%,110%,97.3%,104%,96.8%,95.9%,103%,98.9%,103%,93.1%,99.4%,96.7%,90.3%,93.3%,99.7%,101%,92.6%,101%,97.4%,99%,99.5%,95.6%,96.5%,92.8%,100%,0,0,0,0,0,> 10 µM,> 10 µM,> 10 µM,> 10 µM,> 10 µM
Cc1cc(-c2ccccc2)nnc1NCCN1CCOCC1 [minaprine],102%,96.8%,99.1%,89.4%,91.7%,104%,97.8%,99.6%,98.9%,103%,101%,98.1%,98.8%,100%,94.5%,92%,96%,98.4%,96.1%,89.3%,96.3%,99.6%,96.8%,94.2%,93.6%,0.2,0,0,0,0,> 10 µM,> 10 µM,> 10 µM,> 10 µM,> 10 µM
CCS(=O)(=O)N1CCN(c2ccc(Nc3ncc(C(N)=O)c(NC4CC4)n3)cc2)CC1,92.1%,111%,110%,116%,128%,95.9%,103%,96.4%,89.8%,27.4%,97.4%,94.8%,99.5%,85.6%,89.6%,99.6%,95.4%,91.9%,86.8%,99.1%,97.6%,94.3%,97.3%,76.3%,79.1%,0,5.7,0.3,0,4,> 10 µM,2.04 µM,> 10 µM,> 10 µM,> 10 µM
CC(C)(Sc1ccncc1-c1ccc(C#N)c2ccccc12)C(=O)O [verinurad],106%,93.7%,90.9%,113%,96.8%,103%,99.5%,96.8%,99.8%,103%,95.3%,101%,91.9%,99.4%,106%,97.6%,93.2%,101%,95%,101%,103%,99.8%,93.3%,105%,122%,0,0,0,0,0,> 10 µM,> 10 µM,> 10 µM,> 10 µM,> 10 µM
CCOC(=O)NNc1nncc2ccccc12 [todralazine],84.4%,109%,101%,110%,103%,98.6%,100%,97.1%,102%,105%,101%,88.3%,97.3%,91.5%,99.4%,90.4%,111%,84.2%,94.4%,117%,79.3%,97.3%,125%,112%,97.3%,0,0,0,0,0,> 10 µM,> 10 µM,> 10 µM,> 10 µM,> 10 µM
CCc1cc(O)c(Oc2ccc(C(N)=O)cc2F)cc1F,106%,97.8%,95.3%,98.6%,89.3%,104%,99.9%,102%,102%,102%,102%,98.2%,99.8%,104%,100%,107%,99%,104%,97.9%,101%,110%,94.1%,93%,103%,97.4%,0,0,0,0,0,> 10 µM,> 10 µM,> 10 µM,> 10 µM,> 10 µM
CNC(=O)Oc1ccccc1OC(C)C [propoxur],102%,97.1%,86.2%,94.4%,104%,101%,97.7%,95.7%,94.9%,98.2%,95%,106%,102%,88.2%,85.4%,99.6%,84.6%,104%,88.1%,101%,105%,93.3%,87.5%,93.8%,99.7%,0,0,1,0,0,> 10 µM,> 10 µM,> 10 µM,> 10 µM,> 10 µM
